Laboratory results published in patent US20260176260A1, “DUAL RAF AND TUBULIN INHIBITORS AND METHODS OF USE THEREOF” (Deciphera Pharmaceuticals, LLC, priority 2023, published 2026).

Legend:
[1] = biological target: T1, B-Raf kinase (Homo sapiens, UniProt P15056); experiment: Biochemical assay for B-Raf (coupled pyruvate kinase/lactate dehydrogenase); conditions: Table 1, inhibition of biochemical activity; read-out: BRAF
T1 construct: purchased Sigma

[2] = biological target: T2, C-Raf kinase (Homo sapiens, UniProt P04049, Y340D/Y341D); experiment: Biochemical assay for C-Raf (coupled pyruvate kinase/lactate dehydrogenase); conditions: Table 1, inhibition of biochemical activity; read-out: CRAF
T2 construct: C-Raf residues 306-end; Y340D, Y341D with N-; purchased Sigma

[3] = system: MiaPaca-2 cells; experiment: MiaPaca-2 cell proliferation assay (resazurin); type: cell-based; conditions: Homo sapiens, MIA PaCa-2; Table 2, inhibition of cell proliferation; read-out: MiaPaca-2
Method: MiaPaca-2 cells (catalog #CRL-1420) are obtained from the American Type Culture Collect (ATTC, Manassas, VA). Briefly, cells were grown in DMVEM supplemented with […] fetal bovine serum (Invitrogen, Carlsbad, CA), 2.5% New Zealand sourced horse serum and 1% Penicillin/Streptomycin/L-Glutamine at 37° C., […], and […]. Cells are expanded until reaching […] at which point they are sub-cultured or harvested for assay use. For assays completed in 96-well plates, a serial dilution of test compound is dispensed into a 96-well black clear bottom plate in triplicate. Three thousand cells are added per well in 200 μL complete growth medium in the 96-well plate. Plates are incubated for 67 to 72 h at 37° C., 5% CO2, and 95% humidity. At the end of the incubation, 40 μL of a […] solution of resazurin (Sigma, St. Louis, MO) in PBS is added to each well of the plate and plates are incubated for an additional 5 to 6 h at 37° C., 5% CO2, and 95% humidity. For 384-well assays, a threefold, 8-point serial dilution of compound was spotted column wise into a 384 well black, clear bottom, tissue culture treated plate using the Beckman Coulter Echo 650. Likewise, a threefold, 8-point serial dilution of cobimetinib was spotted row wise into the 384 well black, clear bottom plate containing compound. DMSO concentration was constant across all wells at 0.4%. Seven hundred fifty cells are added per well in 50 μL complete growth medium in each 384-well plate. Plates are incubated for 67 to 72 h at 37° C., 5% CO2, and 95% humidity. At the end of the incubation, 10 μL of a 440 μM solution of resazurin (Sigma, St. Louis, MO) in PBS is added to each well of the plate and plates are incubated for an additional 4 to 6 h at 37° C., 5% CO2, and 95% humidity. Plates are read on a Synergy2 or equivalent reader (Biotek, Winooski VT) using an excitation of 540 nm and an emission of 600 nm. Data is analyzed using Prism software (Graphpad, San Diego, CA) to calculate IC50 values.

[4] = system: HCT-116 cells; experiment: HCT-116 cell proliferation assay (resazurin); type: cell-based; conditions: Homo sapiens; Table 2, inhibition of cell proliferation; read-out: HCT-116
Method: HCT-116 cells (catalog #CCL-247) are obtained from the American Type Culture Collect (ATCC, Manassas, VA). Briefly, cells are grown in McCoy's 5A supplemented with 10% characterized fetal bovine serum (Invitrogen, Carlsbad, CA) and 1% Penicillin/Streptomycin/L-Glutamine at 37° C., 5% CO2, and 95% humidity. Cells are expanded until reaching 70-95% confluency at which point they are sub-cultured or harvested for assay use. A serial dilution of test compound is dispensed into a 384-well black clear bottom plate in triplicate. 375 cells are added per well in 50 μL complete growth medium in the 384-well plate. Plates are incubated for 67 to 72 h at 37° C., 5% CO2, and 95% humidity. At the end of the incubation, 40 μL of a […] solution of resazurin (Sigma, St. Louis, MO) in PBS is added to each well of the plate and plates are incubated for an additional 4 to 5 h at 37° C., 5% CO2, and 95% humidity. Plates are read on a Synergy2 or equivalent reader (Biotek, Winooski, VT) using an excitation of 540 nm and an emission of 600 nm. Data is analyzed using Prism software (Graphpad, San Diego, CA) to calculate IC50 values.

[5] = system: HPAF-II cells; experiment: HPAF-II cell proliferation assay (resazurin); type: cell-based; conditions: Homo sapiens; Table 2, inhibition of cell proliferation; read-out: HPAF-II
Method: (§1) HPAF-II cells (catalog #CRL-1997) are obtained from the American Type Culture Collect (ATCC, Manassas, VA). Briefly, cells are grown in Minimum Essential Media supplemented with 10% characterized fetal bovine serum (Invitrogen, Carlsbad, CA) and 1% Penicillin/Streptomycin/L-Glutamine at 37° C., 5% CO2, and 95% humidity. Cells are expanded until reaching 70-95% confluency at which point they are sub-cultured or harvested for assay use. A serial dilution of test compound is dispensed into a 384-well black clear bottom plate in triplicate. 750 cells are added per well in 50 μL complete growth medium in the 384-well plate. Plates are incubated for 115 to 120 h at 37° C., 5% CO2, and 95% humidity. At the end of the incubation, 40 μL of a […] solution of resazurin (Sigma, St. Louis, MO) in PBS is added to each well of the plate and plates are incubated for an additional 18 to 24 h at 37° C., 5% CO2, and 95% humidity. Plates are read on a Synergy2 or equivalent reader (Biotek, Winooski, VT) using an excitation of 540 nm and an emission of 600 nm. Data is analyzed using Prism software (Graphpad, San Diego, CA) to calculate IC50 values.

[6] = system: Pa16c cells; experiment: Pa16c cell proliferation assay (resazurin); type: cell-based; conditions: Table 2, inhibition of cell proliferation
Method: as §1, with “Pa16c” for “HPAF-II”, “cells” for “cells (catalog #CRL-1997)”, “Dr. Channing Der, University of North Carolina at Chapel Hill.” for “the American Type Culture Collect (ATCC, Manassas, VA).”, “Dulbecco's Modified Eagle Medium” for “Minimum Essential Media”, “67” for “115”, “72” for “120”

T1 sequence (P15056 416-766): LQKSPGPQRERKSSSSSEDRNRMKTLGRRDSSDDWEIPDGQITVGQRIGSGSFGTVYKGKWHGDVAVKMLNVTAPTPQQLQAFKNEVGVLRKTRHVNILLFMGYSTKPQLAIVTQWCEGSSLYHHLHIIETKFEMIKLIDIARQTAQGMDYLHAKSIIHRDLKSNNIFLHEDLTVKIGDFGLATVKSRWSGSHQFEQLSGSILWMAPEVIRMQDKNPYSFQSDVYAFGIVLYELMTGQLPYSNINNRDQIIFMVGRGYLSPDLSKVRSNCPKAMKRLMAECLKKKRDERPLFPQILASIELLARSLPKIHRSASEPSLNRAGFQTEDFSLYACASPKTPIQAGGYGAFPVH
T2 sequence (P04049 307-648 Y340D/Y341D): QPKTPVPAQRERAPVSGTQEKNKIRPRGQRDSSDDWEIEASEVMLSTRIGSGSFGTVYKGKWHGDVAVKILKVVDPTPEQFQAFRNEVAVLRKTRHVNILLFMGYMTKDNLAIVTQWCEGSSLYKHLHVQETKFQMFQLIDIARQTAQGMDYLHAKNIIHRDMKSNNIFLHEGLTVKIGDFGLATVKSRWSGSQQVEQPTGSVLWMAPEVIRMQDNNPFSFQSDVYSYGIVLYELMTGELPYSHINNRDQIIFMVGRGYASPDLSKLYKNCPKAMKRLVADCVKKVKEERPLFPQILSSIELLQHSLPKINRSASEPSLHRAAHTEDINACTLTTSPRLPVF

Compound | IC50 [1] | IC50 [2] | IC50 [3] | IC50 [4] | IC50 [5] | IC50 [6]
CNC(=O)c1cc(-c2nc(NCCO)cc(-c3cc(NC(=O)c4cc(C(F)(F)F)cnn4)ccc3C)n2)ccn1 [Example 23] | < 0.1 µM | < 0.1 µM | 1 to 10 µM | 0.5 to 1 µM | 1 to 10 µM | 1 to 10 µM
CNC(=O)c1cc(-c2cncc(-c3cc(NC(=O)c4cc(C5CC5)cnn4)ccc3C)c2)ncn1 [Example 24] | < 0.1 µM | < 0.1 µM | 1 to 10 µM | 1 to 10 µM | 1 to 10 µM | 1 to 10 µM
CNC(=O)c1cc(-c2cc(-c3cc(NC(=O)c4cc(C(F)(F)F)cnn4)ccc3C)nc(N[C@H](C)CO)n2)ccn1 [Example 25] | < 0.1 µM | < 0.1 µM | 0.1 to 0.5 µM | 0.1 to 0.5 µM | 0.1 to 0.5 µM | 1 to 10 µM
CNC(=O)c1cc(-c2nc(N[C@H](C)CO)cc(-c3cc(NC(=O)c4cc(C(F)(F)F)cnn4)ccc3C)n2)ccn1 [Example 28] | < 0.1 µM | < 0.1 µM | 1 to 10 µM | 1 to 10 µM | 1 to 10 µM | 1 to 10 µM
CNC(=O)c1cc(-c2cc(-c3cc(NC(=O)c4cc(C(F)(F)F)cnn4)ccc3C)cc(N[C@H](C)CO)n2)ccn1 [Example 29] | < 0.1 µM | < 0.1 µM | 0.1 to 0.5 µM | < 0.1 µM | 0.1 to 0.5 µM | 0.1 to 0.5 µM
CNC(=O)c1cc(-c2cc(-c3cc(NC(=O)c4cc(C5CC5)cnn4)ccc3C)cc(N[C@H](C)CO)n2)ccn1 [Example 32] | < 0.1 µM | < 0.1 µM | 0.1 to 0.5 µM | 0.1 to 0.5 µM | 0.1 to 0.5 µM | 0.1 to 0.5 µM
CNC(=O)c1cc(-c2cc(NCCO)nc(-c3cc(NC(=O)c4cc(C(F)(F)F)cnn4)ccc3C)n2)ccn1 [Example 33] | 0.1 to 0.5 µM | < 0.1 µM | 1 to 10 µM | 1 to 10 µM | 1 to 10 µM | 1 to 10 µM
CNC(=O)c1cc(-c2cc(-c3cc(NC(=O)c4cc(C5CC5)cnn4)ccc3C)cc(OCCO)n2)ccn1 [Example 34] | < 0.1 µM | < 0.1 µM | 0.5 to 1 µM | 0.1 to 0.5 µM | 0.5 to 1 µM | 0.1 to 0.5 µM
CNC(=O)c1cc(-c2cc(-c3cc(NC(=O)c4cc(C(F)(F)F)cnn4)ccc3C)cc(OCCO)n2)ccn1 [Example 35] | < 0.1 µM | < 0.1 µM | 0.1 to 0.5 µM | 0.1 to 0.5 µM | 0.1 to 0.5 µM | 0.1 to 0.5 µM
CNC(=O)c1cc(-c2cc(-c3cc(NC(=O)c4cc(Cl)cnn4)ccc3C)ccn2)ccn1 [Example 36] | 0.1 to 0.5 µM | < 0.1 µM | 0.5 to 1 µM | 0.5 to 1 µM | 1 to 10 µM | 1 to 10 µM
CNC(=O)c1cc(-c2cc(N[C@H](C)CO)nc(-c3cc(NC(=O)c4cc(C(F)(F)F)cnn4)ccc3C)n2)ccn1 [Example 39] | 0.1 to 0.5 µM | 0.1 to 0.5 µM | 1 to 10 µM | 1 to 10 µM | 1 to 10 µM | 1 to 10 µM
CNC(=O)c1cc(-c2cc(-c3cc(NC(=O)c4cnc(C(F)(F)F)nc4)ccc3C)ccn2)ccn1 [Example 41] | 1 to 10 µM | 1 to 10 µM | 0.5 to 1 µM | 0.1 to 0.5 µM | 0.1 to 0.5 µM | 0.1 to 0.5 µM

Further lines, with some results ahead:

IC50 [1] | IC50 [2] | IC50 [3] | IC50 [4] | Compound | IC50 [5] | IC50 [6]
< 0.1 µM | < 0.1 µM | 1 to 10 µM | 0.5 to 1 µM | CNC(=O)c1cc(-c2cncc(-c3cc(NC(=O)c4cc(C(C)(F)F)cnn4)ccc3C)c2)ccn1 [Example 30] | 1 to 10 µM | 1 to 10 µM
< 0.1 µM | < 0.1 µM | 0.1 to 0.5 µM | 0.1 to 0.5 µM | CNC(=O)c1cc(-c2cc(-c3cc(NC(=O)c4cc(C(C)(F)F)cnn4)ccc3C)ccn2)ccn1 [Example 31] | 0.1 to 0.5 µM | 0.1 to 0.5 µM
1 to 10 µM | 1 to 10 µM | 1 to 10 µM | 1 to 10 µM | CCc1ccc(NC(=O)c2cc(C(F)(F)F)cnn2)cc1-c1ccnc(-c2ccnc(C(=O)NC)c2)c1 [Example 37] | 1 to 10 µM | 1 to 10 µM
< 0.1 µM | < 0.1 µM | 0.1 to 0.5 µM | 0.1 to 0.5 µM | CNC(=O)c1cc(-c2cc(-c3cc(NC(=O)c4cc(C(C)(F)F)cnn4)ccc3C)cc(N[C@H](C)CO)n2)ccn1 [Example 38] | 0.1 to 0.5 µM | 0.1 to 0.5 µM
< 0.1 µM | < 0.1 µM | < 0.1 µM | < 0.1 µM | CNC(=O)c1cc(-c2cc(-c3cc(NC(=O)c4cc(C(C)(F)F)cnn4)ccc3C)cc(NCCO)n2)ccn1 [Example 42] | 0.1 to 0.5 µM | 0.1 to 0.5 µM
< 0.1 µM | < 0.1 µM | 0.5 to 1 µM | 0.1 to 0.5 µM | CNC(=O)c1cc(-c2cc(-c3cc(NC(=O)c4cc(C(C)(F)F)cnn4)ccc3C)cc(OCCO)n2)ccn1 [Example 43] | 0.1 to 0.5 µM | 0.1 to 0.5 µM
0.1 to 0.5 µM | 0.1 to 0.5 µM | 1 to 10 µM | 1 to 10 µM | CNC(=O)c1cc(-c2cc(-c3cc(NC(=O)c4ccc(C(F)(F)F)nc4)ccc3C)cc(N[C@H](C)CO)n2)ccn1 [Example 44] | 1 to 10 µM | 1 to 10 µM
0.1 to 0.5 µM | 0.1 to 0.5 µM | 1 to 10 µM | 1 to 10 µM | CNC(=O)c1cc(-c2cc(-c3cc(NC(=O)c4cnc(C(F)(F)F)nc4)ccc3C)cc(N[C@H](C)CO)n2)ccn1 [Example 45] | 1 to 10 µM | 1 to 10 µM
